Consider one compound from patent publication US20240057598A1, “USE OF 2-AMINO-3-METHYLHEXANOIC ACID AS PLANT IMMUNITY INDUCER” (NANJING AGRICULTURAL UNIVERSITY, priority 2020, published 2024).

For assay [1], the system named is Pseudomonas syringae PstDC3000. The assay can be described thus: Induced resistance of Arabidopsis to Pseudomonas syringae infection. In kind it is in vivo. The note with it: for Number of bacteria in each milligram of leaf: Arabidopsis leaves, 3 days after inoculation; for Decrease of number of bacteria in each milligram of leaf: compared with blank control; for Decrease of disease index: versus blank control. How it is done: 2-amino-3-methylhexanoic acid was dissolved in sterile water and then diluted with sterile water into solutions of 1 nM, 10 nM, 100 nM, 1,000 nM and 10,000 nM by gradient. A blank control was additionally set, and 0.02% Tween 20 was added as a surfactant. Pseudomonas syringae PstDC3000 was spread on an LB plate and cultured at 28° C. for 48 h. Monoclonal colonies were selected and transferred into a 50 mL centrifuge tube containing 2 mL of a culture medium, and cultured on a shaker at 28° C. and 250 rpm. The change of the OD600 value of the bacterial solution was monitored every 1-2 h, and culture of bacteria was stopped before the OD600 value reached 0.8. 1 mL of bacterial solution was transferred into a 1.5 mL sterile centrifuge tube and centrifuged at 8,000 rpm for 2 min, and the precipitate was collected. The supernatant was removed, the precipitate was washed with 10 mM magnesium chloride three times and centrifuged, and finally the PstDC3000 was suspended in 10 mM magnesium chloride to make the OD600 value thereof reach 0.001 for use. Arabidopsis seeds were soaked in 75% alcohol for 3 min, then washed with sterile water 4 times, and sowed in a culture dish containing a ½ MS medium according to 12 seeds per culture dish. The ½ MS culture dish with seeds was vernalized at 4° C. for 3 days to break dormancy, and then placed in a culture room at 24° C. with a light intensity of 100 μEm^−2s^−1 (16 h light/8 h dark). When the seedlings grew for 2 weeks, the 2-amino-3-methylhexanoic acid of different concentrations was slowly poured into the culture dish until the whole Arabidopsis seedlings were submerged, and after 2-3 min, the treatment solution was poured out of the culture dish. The treatment was repeated once after 24 h and conducted twice in total. 24 h after the second treatment, the Arabidopsis leaves were inoculated with the PstDC3000 suspension (OD600=0.01) by the same submergence method. After inoculation, the culture dish was closed with a medical breathable adhesive tape, and placed in the culture room for further culture. 3 days later, the number of bacteria in different treatment groups was determined. The incidence of Arabidopsis was observed. The disease index was calculated by a formula the same as that in Example 1.
Grading standard of disease caused by PstDC3000 (per leaf): • Grade 0: No diseased spot on the leaf surface. • Grade 1: The diseased spot area accounts for 0-10% of the whole leaf area. • Grade 2: The diseased spot area accounts for 10-25% of the whole leaf area. • Grade 3: The diseased spot area accounts for 25-50% of the whole leaf area. • Grade 4: The diseased spot area accounts for 50-75% of the whole leaf area. • Grade 5: The diseased spot area accounts for 75-100% of the whole leaf area.

A further assay deals with E. coli B. Particulars: cited from earlier work.
The next assay deals with "Sikang 1" cotton. The assay can be described thus: Induced resistance of cotton to salt stress. It counts as in vivo. Particulars: 100 mM NaCl, three days. As to the method:
The experimental material was “Sikang 1” cotton, which was cultured in water in a 500 mL plastic cup, and a ½ Hoagland nutrient solution was changed every three days. When the cotton seedling grew until the second true leaf fully unfolded, the leaf surface was sprayed with 2-amino-3-methylhexanoic acid solutions. The concentrations of 0, 1, 10, 100 and 1,000 nM were set in the experiment, and 0.02% Tween 20 was added as a surfactant. The spraying was repeated once after 24 h and conducted twice in total. On the second day after the treatment, NaCl was added to the ½ Hoagland nutrient solution to a final concentration of 100 mM to conduct salt stress treatment. There were three repetitions in each treatment group. Rehydration treatment was conducted after three days of salt stress, the salt injury symptoms of cotton were observed, and the salt injury index was calculated by a formula as follows: […]

The test system of another assay is Brevibacterium helvolum. Particulars: cited from earlier work.

`CCCC(C)C(N)C(=O)O` (centres unmarked) [2-amino-3-methylhexanoic acid]: the Disease index in assay [1] (10 nM, Arabidopsis) worked out at 45.00 ± 2.78b. Besides, the “Number of bacteria in each milligram of leaf” value in assay [1] (10 nM) is reported as 3.81 × 10^5 CPU/mg; in assay [1] (100 nM) it was 2.49×10^5 CPU/mg. Moreover, the “Decrease of number of bacteria in each milligram of leaf” value in assay [1] (10 nM) was 88.24%; in assay [1] (100 nM), 92.31%. The entries for the “Decrease of disease index” value in assay [1] (10 nM) and in assay [1] (100 nM) were 42.33 and 45.85, respectively. Besides, the Inhibitory effect entry in the assay on E. coli B is listed as “slight inhibitory effect”; in the assay on Brevibacterium helvolum, “no inhibitory effect”. For the same compound, the Death rate in the assay on "Sikang 1" cotton (1 nM) amounted to 50%; in the assay on "Sikang 1" cotton (10 nM), 50%; in the assay on "Sikang 1" cotton (100 nM), 33%; in the assay with "Sikang 1" cotton (1,000 nM), 33%. For the same compound, the Salt injury index with "Sikang 1" cotton (1 nM) was found to be 67%; in the assay with "Sikang 1" cotton (10 nM), 63%; in the assay on "Sikang 1" cotton (100 nM) it was 56%; in the assay on "Sikang 1" cotton (1,000 nM) it was 47%.
